According to US20030082787A1, “Plant histidine biosynthetic enzymes” (priority 2001, published 2003):

System: HisA enzyme from Nicotiana Plumbaginifolia
Assay: HisA enzyme activity assay (INT/PMS dye, absorbance at 530 nm)
Type: biochemical
Conditions: partially purified recombinant enzyme expressed in E. coli BL21 (DE3); 0.2 M Triethanolamine pH 8.5, 30° C.; read-out: Km for substrate
Method: The HisA enzyme from Nicotiana Plumbaginifolia was partially purified and assayed as follows. A plasmid clone with the cDNA insert in the correct orientation relative to the T7 promoter was transformed into E. coli strain BL21 (DE3) (Studier et al. (1986) J. Mol. Biol. 189:113-130). Cultures are grown in LB medium carbenicillin ([…]) at 28° C. to an optical denisity of 0.44 at 600 nm. Each liter of LB/carbenicillin was inoculated with 20 mL of the overnight culture. These one liter cultures were incubated at 26° C. with agitation for 21 hours. HisA expression was induced as described above. The cells were harvested by centrifugation and frozen at −80° C.
Each gram of cell paste was resuspended in two milliliters of 20 mM Triethanolamine buffer at pH 8.3 containing Complete™ protease inhibitors (Boehringer Mannheim) and 1 mM EDTA. The cells were disrupted by three passes through a microfluidizer and the lysed cell debris was removed by centrifugation. The supernatant was treated with streptomycin sulfate which was added to a final concentration of 1%. […]
HisA enzyme activity was assayed essentially as described by Margolies et al., (1966) J. Biol. Chem. 241:3262-3269. […] Blank reactions containing either no enzyme or no substrate were also prepared to control for background absorbance. […] The absorbance at 530 nm was measured.

NC(=O)c1ncn([C@@H]2O[C@H](COP(=O)(O)O)[C@@H](O)[C@H]2O)c1N=CN[C@@H]1O[C@H](COP(=O)(O)O)[C@@H](O)[C@H]1O [5′ Profar, N1-[(5′-phospho-b-D-ribosyl)formimino]-5-aminoimidazole-4-carboxamide ribonucleotide]
Km: 200 µM
